Measured values reported in patent US20260217711A1, “TRIAZOLOPYRIDINYL ETHER LINKED COMPOUNDS AS KINASE INHIBITORS” (Bristol-Myers Squibb Company, priority 2023, published 2026).

Tested on: MLKL phosphorylation (pMLKL) in HT29-L23 cells
Assay: MLKL Phosphorylation High-Content Assay
Type: cell-based
Details: Homo sapiens, 6 h, necroptosis induced with human TNFα, SMAC mimetic and Z-VAD, read-out: LE pMLKL HC IC50
How it was run: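 HT29-L23 cells incubated 6 h at 37° C before detection of phospho-MLKL by immunostaining with anti-phospho-MLKL antibody (1:1000 in PBS/0.1% BSA, overnight at 4° C). Readout by high-content imaging with compartmental image analysis.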

Compound	IC50
CC(O)(c1ccc(F)cc1)C(F)(F)CCOc1cnc(Cl)c(-c2ccn3nc(N)nc3c2)n1 (racemic) [Example 81, 5-((6-(2-amino-[1,2,4]triazolo[1,5-a]pyridin-7-yl)-5-chloropyrazin-2-yl)oxy)-3,3-difluoro-2-(4-fluorophenyl)pentan-2-ol]	0.0002 µM
CC(O)(c1ccccc1)C(F)(F)CCOc1cccc(-c2ccn3nc(N)nc3c2)c1F (single isomer, unassigned) [Example 68, 5-(3-(2-amino-[1,2,4]triazolo[1,5-a]pyridin-7-yl)-2-fluorophenoxy)-3,3-difluoro-2-phenylpentan-2-ol]	0.0001 µM
Nc1nc2cc(-c3cccc(OCCC(F)(F)Oc4ccc(F)cc4)c3F)ccn2n1 [Example 65, 7-(3-(3,3-difluoro-3-(4-fluorophenoxy)propoxy)-2-fluorophenyl)-[1,2,4]triazolo[1,5-a]pyridin-2-amine]	0.14 µM
CC(O)(c1ccc(F)cc1)C(F)(F)CCOc1cccc(-c2ccn3nc(N)nc3c2)c1F (racemic) [Example 73, 5-(3-(2-amino-[1,2,4]triazolo[1,5-a]pyridin-7-yl)-2-fluorophenoxy)-3,3-difluoro-2-(4-fluorophenyl)pentan-2-ol]	0.0005 µM

Same assay, conditions: necroptosis induced with human TNFα, SMAC mimetic and Z-VAD, 6 h, read-out: LE pMLKL HC IC50

Compound	IC50
CC(O)(c1ccc(F)cc1)C(F)CCOc1cccc(-c2ccn3nc(N)nc3c2)c1F (single isomer, unassigned) [Example 88, 5-(3-(2-amino-[1,2,4]triazolo[1,5-a]pyridin-7-yl)-2-fluorophenoxy)-3-fluoro-2-(4-fluorophenyl)pentan-2-ol]	0.013 µM
CC(O)(c1ccc(F)cc1)C(F)(F)CCOc1c(F)ccc(-c2ccc3nc(N)nn3c2)c1F (single isomer, unassigned) [Example 75, 5-(3-(2-amino-[1,2,4]triazolo[1,5-a]pyridin-6-yl)-2,6-difluorophenoxy)-3,3-difluoro-2-(4-fluorophenyl)pentan-2-ol]	0.2 µM
CC(O)(c1ccc(F)cc1)C(F)CCOc1c(F)ccc(-c2ccn3nc(N)nc3c2)c1F (single isomer, unassigned) [Example 97, 5-(3-(2-amino-[1,2,4]triazolo[1,5-a]pyridin-7-yl)-2,6-difluorophenoxy)-3-fluoro-2-(4-fluorophenyl)pentan-2-ol]	0.029 µM
Nc1nc2cc(-c3cc(F)c(F)c(OCCC(F)C(O)c4ccc(F)cc4)c3)ccn2n1 (single isomer, unassigned) [Example 117, 4-(5-(2-amino-[1,2,4]triazolo[1,5-a]pyridin-7-yl)-2,3-difluorophenoxy)-2-fluoro-1-(4-fluorophenyl)butan-1-ol]	0.58 µM
[2H]C([2H])(CC(F)(F)C(C)(O)c1ccc(F)cc1)Oc1c(F)ccc(-c2ccn3nc(N)nc3c2)c1F (single isomer, unassigned) [Example 14, 5-(3-(2-amino-[1,2,4]triazolo[1,5-a]pyridin-7-yl)-2,6-difluorophenoxy)-3,3-difluoro-2-(4-fluorophenyl)pentan-5,5-d2-2-ol]	0.03 µM
CC(O)(c1ccc(F)cc1)C(F)(F)CCOc1c(Cl)ccc(-c2ccn3nc(N)nc3c2)c1F (single isomer, unassigned) [Example 51, 5-(3-(2-amino-[1,2,4]triazolo[1,5-a]pyridin-7-yl)-6-chloro-2-fluorophenoxy)-3,3-difluoro-2-(4-fluorophenyl)pentan-2-ol]	0.15 µM
CC(O)(c1cccc(F)c1)C(F)(F)CCOc1c(F)ccc(-c2ccn3nc(N)nc3c2)c1F (single isomer, unassigned) [Example 123, 5-(3-(2-amino-[1,2,4]triazolo[1,5-a]pyridin-7-yl)-2,6-difluorophenoxy)-3,3-difluoro-2-(3-fluorophenyl)pentan-2-ol]	0.0009 µM
Nc1nc2cc(-c3cc(F)c(F)c(OCCC(F)C(O)c4ccc(F)cc4)c3)ccn2n1 (single isomer, unassigned) [Example 116, 4-(5-(2-amino-[1,2,4]triazolo[1,5-a]pyridin-7-yl)-2,3-difluorophenoxy)-2-fluoro-1-(4-fluorophenyl)butan-1-ol]	0.055 µM
